Source: ChEMBL document CHEMBL3414554, “Novel 1-(2-aryl-2-adamantyl)piperazine derivatives with antiproliferative activity” (Eur J Med Chem, 2015)

Key:
NCI-H1975 = experiment: Cytotoxicity against human NCI-H1975 cells after 24 hrs by MTT colorimetric assay; format: functional, cell-based; conditions: NCI-H1975, 24 h
NHDF = experiment: Cytotoxicity against NHDF cells after 48 hrs by SRB staining assay; format: cell-based; conditions: human
MDA-MB-231 = experiment: Cytotoxicity against human MDA-MB-231 cells after 24 hrs by MTT colorimetric assay; format: functional, cell-based; conditions: MDA-MB-231, 24 h
HeLa = experiment: Cytotoxicity against human HeLa cells after 24 hrs by MTT colorimetric assay; format: functional, cell-based
HUVEC = experiment: Cytotoxicity against HUVEC cells after 48 hrs by SRB staining assay; format: cell-based; conditions: human
[1] = Cytotoxicity against human MIAPaCa2 cells after 24 hrs by MTT colorimetric assay; format: functional, cell-based; conditions: MIA PaCa-2, 24 h
[2] = target: Sigma non-opioid intracellular receptor 1 (Homo sapiens, UniProt Q99720); experiment: Displacement of [3H]-(+)-pentazocine from sigma-1 receptor in human Jurkat cell membrane by liquid scintillation spectrometry; format: cell membranes
Sigma non-opioid intracellular receptor 1, sequence (Q99720 whole entry): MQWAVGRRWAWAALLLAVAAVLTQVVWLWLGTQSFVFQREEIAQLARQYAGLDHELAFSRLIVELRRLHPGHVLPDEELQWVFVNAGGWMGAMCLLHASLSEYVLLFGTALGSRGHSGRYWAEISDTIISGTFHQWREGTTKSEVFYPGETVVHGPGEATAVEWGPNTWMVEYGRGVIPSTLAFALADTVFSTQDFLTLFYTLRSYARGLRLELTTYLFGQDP

[3] = Displacement of [3H]BTX-B from neuronal Na+ channel in male Sprague-Dawley rat brain synaptosomal membrane vesicles by liquid scintillation spectrometry; format: tissue-based
Jurkat = experiment: Selectivity ratio of IC50 for sigma-2 receptor in rat cerebral cortex membranes to IC50 for sigma-1 receptor in human Jurkat cell membrane; format: cell-based
[4] = Displacement of [3H]-DTG from sigma-2 receptor in rat cerebral cortex membranes in presence of (+)-pentazocine by liquid scintillation spectrometry; format: cell membranes, Membrane

Structure (SMILES) | IC50 (NCI-H1975) | LC50 (NHDF) | IC50 (MDA-MB-231) | IC50 (HeLa) | LC50 (HUVEC) | IC50 [1] | IC50 [2] | IC50 [3] | Ratio IC50 (Jurkat) | IC50 [4]
Fc1ccc(C2(N3CCNCC3)C3CC4CC(C3)CC2C4)cc1.O=C(O)/C=C\C(=O)O (centres undefined) | 12.8 µM | 93.66 µM | 14.6 µM | 12.9 µM | > 100 µM | 11.7 µM |  |  |  | 
O=C(N1CCN(C2(c3ccccc3)C3CC4CC(C3)CC2C4)CC1)n1ccnc1 (centres undefined) | 10.5 µM | 98.16 µM | 13.5 µM | 12.2 µM | > 100 µM | 13.5 µM |  |  |  | 
O=C(O)/C=C\C(=O)O.c1ccc(C2(N3CCNCC3)C3CC4CC(C3)CC2C4)cc1 (centres undefined) | 17.3 µM | 90 µM | 8.4 µM | 9.2 µM | 95.45 µM | 12.3 µM |  |  |  | 
CCOC(=O)N1CCN(C2(c3ccc(F)cc3)C3CC4CC(C3)CC2C4)CC1 (centres undefined) | 17.5 µM |  | 21 µM | 14.5 µM |  | 18.5 µM |  |  |  | 
CN1CCN(C2(c3ccccc3)C3CC4CC(C3)CC2C4)CC1 (centres undefined) | 18.7 µM |  | 17.4 µM | 17.4 µM |  | 19.5 µM |  |  |  | 
Nc1ccn([C@@H]2O[C@H](CO)[C@@H](O)C2(F)F)c(=O)n1 [GEMCITABINE] |  |  | 0.19 µM | 3.3 µM |  | 0.6 µM |  |  |  | 
CN1CCN(C2(c3ccc(F)cc3)C3CC4CC(C3)CC2C4)CC1 (centres undefined) | 14.6 µM |  | 15.7 µM | 15.3 µM |  | 16.6 µM |  |  |  | 
O=C(c1ccc(Cl)s1)N1CCN(C2(c3ccccc3)C3CC4CC(C3)CC2C4)CC1 (centres undefined) | 12.7 µM |  | 11.4 µM | 12.8 µM |  | 12.4 µM |  |  |  | 
O=C(CN1CCCCC1)N1CCN(C2(c3ccc(F)cc3)C3CC4CC(C3)CC2C4)CC1 (centres undefined) | 12.7 µM | 85.26 µM | 6.8 µM | 8.4 µM | 88.78 µM | 14.6 µM |  |  |  | 
O=C(CN1CCCCC1)N1CCN(C2(c3ccccc3)C3CC4CC(C3)CC2C4)CC1 (centres undefined) | 16.3 µM | 58.43 µM | 11.4 µM | 12.4 µM | 60.35 µM | 12.2 µM | 0.135 µM | 2.44 µM | 24.7 | 3.34 µM
CCOC(=O)N1CCN(C2(c3ccccc3)C3CC4CC(C3)CC2C4)CC1 (centres undefined) | 24.2 µM | 100 µM | 28 µM | 23 µM | > 100 µM | 25.4 µM |  |  |  | 
